Test: Drug level in mouse liver mitochondria
Format: ADME
Conditions: in vivo

Drug uptake: 18.7%
Structure (SMILES): CC[C@]1(O)C[C@@H]2CN(CCc3c([nH]c4ccccc34)[C@@](C(=O)OC)(c3cc4c(cc3OC)N(C)[C@H]3[C@@](O)(C(=O)OC)[C@H](OC(C)=O)[C@]5(CC)C=CCN6CC[C@]43[C@@H]65)C2)C1 [VINBLASTINE]

Source: ChEMBL document CHEMBL1150210, “Metabolism of the Catharanthus alkaloids: from Streptomyces griseus to monoamine oxidase B” (J Nat Prod, 1992)
